Among the data in patent publication US10045978B2 (AB SCIENCE, priority 2010, dated 2018) are IC50 and overall response rate values, retold here.

Each structure is given as a SMILES string.

Experiment [1] deals with Ba/F3 cells expressing the D816V c-Kit mutation. Particulars: proliferation; cited from earlier work.
The test system of experiment [2] is patients with indolent mastocytosis with handicap bearing the D816V c-Kit mutation. Put plainly: Example 3 a posteriori analysis of new handicap and response criteria. The class given is in vivo, human. An excerpt:
Of relevance to the invention described, the concepts of a restricted mast cell mediator release associated handicap population and a more stringently defined response criterion have been explored via a posteriori data analysis of a common study population. […] (Note, any discrepancies between directly equivalent data presented in example 2 and example 3 are due to the former being taken from preliminary data analysis and the latter being extended/validated data from that study).
A posteriori data analysis was carried out on a new, restricted mast cell mediator release associated handicap population (wherein patients were classified as having a handicap if after appropriate symptomatic treatments they fulfilled at least one of the following criteria: number of flushes/week ≥7; pruritus score ≥6; number of stools ≥4/day (i.e. diarrhea); micturition frequency ≥8/day (i.e. pollakiuria); Hamilton rating for depression ≥14; Fatigue Impact Scale (FIS) score ≥75; or EORTC quality-of-life questionnaire (QLQ-C30) score ≥60). […]

In general, IC50 refers to the concentration that gives 50% inhibition. Take `Cc1ccc(NC(=O)c2ccc(CN3CCN(C)CC3)cc2)cc1Nc1nc(-c2cccnc2)cs1` [masitinib, 4-(4-methylpiperazin-1-ylmethyl)-N-[4-methyl-3-(4-pyridin-3ylthiazol-2-ylamino)phenyl]benzamide]: the IC50 in experiment [1] was 5 ± 2 µM. In addition, the overall response rate in experiment [2] (new handicap thresholds and response criterion, n=11) was determined as 52%; in experiment [2] (original handicap thresholds and response criterion, n=14), 62%.
